In US10758614B2, “Combination therapies targeting tumor-associated stroma or tumor cells and topoisomerase” (BIOMED VALLEY DISCOVERIES, INC., priority 2014, dated 2020):

B1: M830: TEM8 monoclonal antibody (hIgG1), VH SEQ ID NO:5, VL SEQ ID NO:6 (antibody, V domains shown)
VH: EVQLVESGGGVVQPGRSVRLSCAASGFTFSTYTMHWVRQAPGKGLEWVAIISNDGSNKYYADPVRGRFTISRDNSKNTLYLQMNSLRAEDTAVYYCVRGSSWYRGNWFDPWGQGTLVTVSS
VL: DIQMTQSPSSLSASVGDRVTIACRASQTISRYLNWYQQKPGKAPKLLIYAASSLQSGVSSRFSGSGSGTEFTLTISSLQPEDFATYFCQQTYSPPITFGQGTRLEIKR
modifications: TEM830 mAb VH; TEM830 mAb VL

Tests used:
[1] = test system: MDA-MB231 tumors; settings: 79-day study, endpoint 1500 mm^3; logrank
Experimental: Unless otherwise noted, female immunodeficient athymic nude mice (Crl:NU(Ncr)-Foxn/nu, Charles River) were used at nine weeks old with a body weight (BW) range of about 15 to about 30 grams on Day 1 of the study.
On the day of tumor implant, each test mouse was injected with cultured tumor cells, and tumor growth was monitored as the average size approached the target range. Tumors were measured in two dimensions using calipers, and volume was calculated using the formula: Tumor Volume (mm^3)=(w^2×l)/2 where w=width and l=length, in mm, of the tumor. Tumor weight was estimated with the assumption that 1 mg is equivalent to 1 mm^3 of tumor volume. For all therapeutic studies, mice were sorted into groups containing the same average size tumors prior to initiation of therapy. Controls
One group in each cohort received 1% vehicle IP three times per week to end, and served as the control group for calculation of % tumor growth delay (TGD).
Tumors were measured using calipers twice per week, and each animal was euthanized when its tumor reached the pre-determined tumor volume endpoint described for each experiment (usually 2000 mm^3) or on the final day, whichever came first. […] The time to endpoint (TTE) for analysis was calculated for each mouse by the following equation: TTE=[ log10(endpoint volume)−b]/m where TTE is expressed in days, endpoint volume is expressed in mm^3, b is the intercept, and m is the slope of the line obtained by linear regression of a log-transformed tumor growth data set. […] The calculated TTE was usually less than the TP date, the day on which the animal was euthanized for determination of tumor size. […]
Treatment outcome was evaluated from TGD, defined as the increase in the median TTE in a treatment group compared to the control group: TGD=T−C, expressed in days, or as a percentage of the median TTE of the control group: % TGD=[(T−C)/C]×100 where: […]
Animals were weighed daily on Days 1-5, then twice per week until completion of the study. […] Group mean BW loss also was monitored as per protocol. […]

[2] = test system: H460 cells; experiment: M830 in the H460 non-small cell lung carcinoma xenograft model; format: in vivo, athymic nude mice; settings: M830 with combination partner Paclitaxel
Experimental: Animals were monitored for regression responses.
Cultured H460 cells were harvested during exponential growth and resuspended in phosphate buffered saline at a concentration of 1×10^8 cells/mL. 1.0×10^7 tumor cells were injected subcutaneously into the flank of athymic nude mice.

| Molecule | survival compared to controls [1] | regression (at Day 21) [2] |
| --- | --- | --- |
| COc1cccc2c1C(=O)c1c(O)c3c(c(O)c1C2=O)C[C@@](O)(C(=O)CO)C[C@@H]3O[C@H]1C[C@H](N)[C@H](O)[C@H](C)O1 [Doxorubicin, doxorubicin] | statistically significant survival extensions | – |
| CC(=O)O[C@H]1C(=O)[C@@]2(C)[C@H]([C@H](OC(=O)c3ccccc3)[C@]3(O)C[C@H](OC(=O)[C@H](O)[C@@H](NC(=O)c4ccccc4)c4ccccc4)C(C)=C1C3(C)C)[C@]1(OC(C)=O)CO[C@@H]1C[C@@H]2O [paclitaxel] | statistically significant survival extensions | – |
| B1 | did not produce statistically significant survival benefit | (−61% regression) |
